Assays:
RKO = test: cells; format: cell-based
[1] = test system: HCT116 cells treated with a GSK3β inhibitor; test: cells; format: cell-based
[2] = test system: alkaline phosphatase (ALP) activity in C2C12 cells; format: cell-based; conditions: concentration response; for WntCondMedia_Alk Phos C2C12 IC50/EC50: assay number 6
hp70S6K1 (RPS6KB1) = molecular target: T1, hp70S6K1 (RPS6KB1) (Homo sapiens, UniProt P23443); test: Cerep LANCE kinase assay hp70S6K1 (S1 assay 31); format: biochemical; conditions: for hp70S6K1 LANCE IC50/EC50: assay number 31
T1 construct: purchased Cerep (LANCE kinase assay platform, contract assay)
T1 sequence (P23443 whole entry): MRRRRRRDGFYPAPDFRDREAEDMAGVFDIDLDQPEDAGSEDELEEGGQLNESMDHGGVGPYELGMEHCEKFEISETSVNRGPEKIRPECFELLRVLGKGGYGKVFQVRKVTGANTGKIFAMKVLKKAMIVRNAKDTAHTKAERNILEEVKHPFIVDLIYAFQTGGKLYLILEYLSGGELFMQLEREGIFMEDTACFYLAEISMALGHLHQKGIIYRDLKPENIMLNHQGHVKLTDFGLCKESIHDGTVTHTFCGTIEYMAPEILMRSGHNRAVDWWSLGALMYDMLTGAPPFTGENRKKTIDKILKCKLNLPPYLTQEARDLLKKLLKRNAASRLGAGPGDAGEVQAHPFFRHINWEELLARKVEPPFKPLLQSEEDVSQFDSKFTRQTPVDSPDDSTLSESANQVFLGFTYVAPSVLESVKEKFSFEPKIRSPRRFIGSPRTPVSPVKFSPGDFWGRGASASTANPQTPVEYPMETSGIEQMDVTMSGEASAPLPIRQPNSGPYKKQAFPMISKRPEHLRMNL

[3] = test system: ECFC/ADSC co-culture cell nuclei number
HT-29 = test: cells; format: cell-based
hGSK3b = molecular target: T2, hGSK3b (Homo sapiens, UniProt P49841); test: Cerep LANCE kinase assay hGSK3b (S1 assay 34); format: biochemical; conditions: for hGSK3b LANCE IC50/EC50: assay number 34
T2 construct: purchased Cerep (LANCE kinase assay platform, contract assay)
T2 sequence (P49841 whole entry): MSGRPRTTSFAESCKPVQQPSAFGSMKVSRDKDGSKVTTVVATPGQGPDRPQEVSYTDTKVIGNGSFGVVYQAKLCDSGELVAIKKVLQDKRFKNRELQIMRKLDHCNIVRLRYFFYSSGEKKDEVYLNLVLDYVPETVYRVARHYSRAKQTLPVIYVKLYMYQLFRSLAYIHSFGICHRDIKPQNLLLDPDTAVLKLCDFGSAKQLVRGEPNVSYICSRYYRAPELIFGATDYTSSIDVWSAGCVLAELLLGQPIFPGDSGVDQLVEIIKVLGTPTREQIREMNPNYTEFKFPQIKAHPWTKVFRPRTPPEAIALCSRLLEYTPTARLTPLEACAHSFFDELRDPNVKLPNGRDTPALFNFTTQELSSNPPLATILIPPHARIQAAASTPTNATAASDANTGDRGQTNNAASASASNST

hKDR = molecular target: T3, hKDR (Homo sapiens, UniProt P35968); test: Cerep LANCE kinase assay hKDR (S1 assay 32); format: biochemical; conditions: for hKDR LANCE IC50/EC50: assay number 32
T3 construct: purchased Cerep (LANCE kinase assay platform, contract assay)
T3 sequence (P35968 20-1356): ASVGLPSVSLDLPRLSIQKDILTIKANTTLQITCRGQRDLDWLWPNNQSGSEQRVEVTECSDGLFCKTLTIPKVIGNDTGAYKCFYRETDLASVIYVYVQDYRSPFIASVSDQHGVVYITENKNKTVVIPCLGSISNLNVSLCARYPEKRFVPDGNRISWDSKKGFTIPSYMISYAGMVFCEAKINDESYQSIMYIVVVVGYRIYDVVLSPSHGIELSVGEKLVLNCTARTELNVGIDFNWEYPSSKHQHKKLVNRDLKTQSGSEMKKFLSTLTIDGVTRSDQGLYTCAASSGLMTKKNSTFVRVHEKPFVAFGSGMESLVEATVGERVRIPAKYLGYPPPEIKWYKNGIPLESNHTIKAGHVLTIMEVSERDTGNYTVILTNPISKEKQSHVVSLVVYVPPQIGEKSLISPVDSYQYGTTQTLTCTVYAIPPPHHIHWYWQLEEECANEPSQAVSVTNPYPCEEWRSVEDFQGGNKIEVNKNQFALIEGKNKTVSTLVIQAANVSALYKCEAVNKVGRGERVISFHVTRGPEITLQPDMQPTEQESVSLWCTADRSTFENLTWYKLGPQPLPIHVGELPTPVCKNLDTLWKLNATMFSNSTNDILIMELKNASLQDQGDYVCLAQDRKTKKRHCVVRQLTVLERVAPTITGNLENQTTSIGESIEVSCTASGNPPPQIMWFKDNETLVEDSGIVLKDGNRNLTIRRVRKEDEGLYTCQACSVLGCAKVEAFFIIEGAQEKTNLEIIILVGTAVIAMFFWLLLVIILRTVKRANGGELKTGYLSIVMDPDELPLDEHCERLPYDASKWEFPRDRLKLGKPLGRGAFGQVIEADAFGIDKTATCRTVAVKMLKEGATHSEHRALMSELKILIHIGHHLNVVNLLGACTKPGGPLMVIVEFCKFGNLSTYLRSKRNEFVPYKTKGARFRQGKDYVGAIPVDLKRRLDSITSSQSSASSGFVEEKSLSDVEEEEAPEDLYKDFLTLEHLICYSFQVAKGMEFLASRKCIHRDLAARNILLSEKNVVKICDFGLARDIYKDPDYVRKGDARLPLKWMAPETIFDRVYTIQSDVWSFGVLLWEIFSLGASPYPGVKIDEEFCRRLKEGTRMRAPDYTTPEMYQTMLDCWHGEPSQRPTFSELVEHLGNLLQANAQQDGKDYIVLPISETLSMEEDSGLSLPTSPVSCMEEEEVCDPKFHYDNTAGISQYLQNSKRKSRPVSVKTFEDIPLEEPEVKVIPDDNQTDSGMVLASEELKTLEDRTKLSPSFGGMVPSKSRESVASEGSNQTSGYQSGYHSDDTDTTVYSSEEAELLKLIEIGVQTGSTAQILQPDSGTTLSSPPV

DLD-1 = test: cells; format: cell-based
HCT116 = test: cells; format: cell-based; conditions: basal
hFLT3 = molecular target: T4, hFLT3 (Homo sapiens, UniProt P36888); test: Cerep LANCE kinase assay hFLT3 (S1 assay 35); format: biochemical; conditions: for hFLT3 LANCE IC50/EC50: assay number 35
T4 construct: purchased Cerep (LANCE kinase assay platform, contract assay)
T4 sequence (P36888 27-993): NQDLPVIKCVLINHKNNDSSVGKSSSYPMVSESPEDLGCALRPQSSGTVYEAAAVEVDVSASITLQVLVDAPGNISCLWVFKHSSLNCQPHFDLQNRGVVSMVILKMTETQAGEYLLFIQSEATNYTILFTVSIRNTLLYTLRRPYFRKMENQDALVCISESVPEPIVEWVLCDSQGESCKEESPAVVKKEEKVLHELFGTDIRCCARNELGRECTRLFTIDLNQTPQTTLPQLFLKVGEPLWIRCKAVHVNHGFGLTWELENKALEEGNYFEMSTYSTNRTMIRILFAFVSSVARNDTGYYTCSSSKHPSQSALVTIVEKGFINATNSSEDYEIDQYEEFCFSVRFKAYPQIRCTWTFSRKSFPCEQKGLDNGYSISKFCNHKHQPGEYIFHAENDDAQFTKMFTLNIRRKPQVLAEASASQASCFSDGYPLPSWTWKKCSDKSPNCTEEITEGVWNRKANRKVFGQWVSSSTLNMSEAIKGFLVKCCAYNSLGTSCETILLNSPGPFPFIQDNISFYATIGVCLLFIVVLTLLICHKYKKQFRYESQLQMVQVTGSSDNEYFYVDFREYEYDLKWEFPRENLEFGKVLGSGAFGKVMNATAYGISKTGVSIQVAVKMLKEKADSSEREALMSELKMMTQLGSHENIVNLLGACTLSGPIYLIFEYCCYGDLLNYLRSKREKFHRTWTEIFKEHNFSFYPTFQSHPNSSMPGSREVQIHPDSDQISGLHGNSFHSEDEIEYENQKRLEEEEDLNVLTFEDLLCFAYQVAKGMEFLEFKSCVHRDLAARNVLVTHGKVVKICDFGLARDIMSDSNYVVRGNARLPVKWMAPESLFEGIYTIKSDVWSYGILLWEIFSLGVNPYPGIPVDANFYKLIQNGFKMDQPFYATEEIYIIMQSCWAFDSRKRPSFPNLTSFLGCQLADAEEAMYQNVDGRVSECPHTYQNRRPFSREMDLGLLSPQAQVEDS

[4] = test system: endothelial tube formation in co-cultures of ECFCs and ADSCs treated with VEGF; test: cells; format: cell-based, human
[5] = test system: nuclear β-catenin in C2C12 cells; test: cells; format: cell-based; conditions: concentration response; for WntCondMedia_bCatenin C2C12 IC50/EC50: assay number 5
SW480 = test: cells; format: cell-based; conditions: basal
HeLa cells = test: cells; format: cell-based; conditions: for Hela CellCycMod PI 2N IC50/EC50: assay number 14; for Hela CellCycMod PI 4N IC50/EC50: assay number 16; for Hela CellCycMod PI MI IC50/EC50: assay number 17; for Hela CellCycMod PI Cell Number IC50/EC50: assay number 18
hJAK2 = molecular target: T5, hJAK2 (Homo sapiens, UniProt O60674); test: Cerep LANCE kinase assay hJAK2 (S1 assay 33); format: biochemical; conditions: for hJAK2 LANCE IC50/EC50: assay number 33
T5 construct: purchased Cerep (LANCE kinase assay platform, contract assay)
T5 sequence (O60674 whole entry): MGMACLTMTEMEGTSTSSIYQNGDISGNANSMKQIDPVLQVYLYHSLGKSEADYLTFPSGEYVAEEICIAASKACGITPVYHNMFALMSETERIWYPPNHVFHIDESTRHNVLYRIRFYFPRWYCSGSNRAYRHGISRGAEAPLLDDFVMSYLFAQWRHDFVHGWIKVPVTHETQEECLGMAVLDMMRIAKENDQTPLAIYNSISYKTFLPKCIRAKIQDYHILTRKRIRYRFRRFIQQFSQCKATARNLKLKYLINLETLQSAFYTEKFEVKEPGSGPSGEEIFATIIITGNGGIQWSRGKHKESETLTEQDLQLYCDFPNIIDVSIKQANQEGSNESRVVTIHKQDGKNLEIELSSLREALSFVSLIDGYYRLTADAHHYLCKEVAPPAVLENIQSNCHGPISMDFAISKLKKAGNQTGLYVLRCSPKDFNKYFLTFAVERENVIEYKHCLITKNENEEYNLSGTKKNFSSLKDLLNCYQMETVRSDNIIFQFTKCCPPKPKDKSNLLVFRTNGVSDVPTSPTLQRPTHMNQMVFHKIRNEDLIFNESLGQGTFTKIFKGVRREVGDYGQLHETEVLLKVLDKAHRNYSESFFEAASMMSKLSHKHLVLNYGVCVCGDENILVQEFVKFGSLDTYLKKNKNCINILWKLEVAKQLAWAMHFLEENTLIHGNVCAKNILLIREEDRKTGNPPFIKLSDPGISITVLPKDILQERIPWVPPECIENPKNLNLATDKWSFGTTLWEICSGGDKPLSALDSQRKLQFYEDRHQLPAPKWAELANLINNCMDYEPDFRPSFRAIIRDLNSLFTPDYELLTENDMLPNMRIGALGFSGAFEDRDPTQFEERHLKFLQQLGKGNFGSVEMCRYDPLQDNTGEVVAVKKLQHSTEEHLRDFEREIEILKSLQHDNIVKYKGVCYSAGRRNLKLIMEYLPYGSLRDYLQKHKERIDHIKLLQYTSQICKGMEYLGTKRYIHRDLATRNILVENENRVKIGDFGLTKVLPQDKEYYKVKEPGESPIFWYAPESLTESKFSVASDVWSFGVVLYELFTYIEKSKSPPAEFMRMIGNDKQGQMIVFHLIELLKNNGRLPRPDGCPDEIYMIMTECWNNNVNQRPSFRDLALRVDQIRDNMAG

SNU-C1 = test: cells; format: cell-based; conditions: assay number 30

Compound	WntCondMedia_Alk Phos C2C12 IC50/EC50 [2] [µM]	hp70S6K1 LANCE IC50/EC50 (hp70S6K1 (RPS6KB1)) [µM]	VEGF_ADSC\ECFC Angio Hoechst NucArea IC50/EC50 [3] [µM]	hGSK3b LANCE IC50/EC50 (hGSK3b) [µM]	hKDR LANCE IC50/EC50 (hKDR) [µM]	hFLT3 LANCE IC50/EC50 (hFLT3) [µM]	VEGF_ADSC\ECFC Angio CD31 TubeArea IC50/EC50 [4] [µM]	WntCondMedia_bCatenin C2C12 IC50/EC50 [5] [µM]	Hela CellCycMod PI 2N IC50/EC50 (HeLa cells) [µM]	Hela CellCycMod PI 4N IC50/EC50 (HeLa cells) [µM]	Hela CellCycMod PI MI IC50/EC50 (HeLa cells) [µM]	Hela CellCycMod PI Cell Number IC50/EC50 (HeLa cells) [µM]	hJAK2 LANCE IC50/EC50 (hJAK2) [µM]	further results
COC(=O)Nc1nc2ccc([S+]([O-])c3ccccc3)cc2[nH]1 (stereo not drawn) [NCGC00095157-05]														IC50/EC50, Basal_Viability ATP RKO (assay number 29) (RKO; basal): 0.001 µM; IC50/EC50, GSK3b inh pretreated_Viability ATP HCT116 (assay number 26) ([1]; GSK3b inh pretreated): 0.001 µM; IC50/EC50, WntCondMedia_Alk Phos C2C12 (assay number 6) [2]: 0.5593 µM; IC50/EC50, hp70S6K1 LANCE (assay number 31) (hp70S6K1 (RPS6KB1)): > 20 µM; IC50/EC50, VEGF_ADSC\ECFC Angio Hoechst NucArea (assay number 3) [3]: > 10 µM; IC50/EC50, Basal_Viability ATP HT-29 (assay number 28) (HT-29; basal): > 20 µM; IC50/EC50, hGSK3b LANCE (assay number 34) (hGSK3b): > 20 µM; IC50/EC50, hKDR LANCE (assay number 32) (hKDR): > 20 µM; IC50/EC50, Basal_Viability ATP DLD-1 (assay number 23) (DLD-1; basal): > 20 µM; IC50/EC50, Basal_Viability ATP HCT116 (assay number 25) (HCT116): 0.001 µM; IC50/EC50, hFLT3 LANCE (assay number 35) (hFLT3): > 20 µM; IC50/EC50, VEGF_ADSC\ECFC Angio CD31 TubeArea (assay number 2) [4]: 0.2884 µM; IC50/EC50, WntCondMedia_bCatenin C2C12 (assay number 5) [5]: 0.4683 µM; IC50/EC50, Basal_Viability ATP SW480 (assay number 24) (SW480): > 20 µM; IC50/EC50, Hela CellCycMod PI 2N (assay number 14) (HeLa cells): 0.3263 µM; IC50/EC50, Hela CellCycMod PI 4N (assay number 16) (HeLa cells): 0.331 µM; IC50/EC50, Hela CellCycMod PI Cell Number (assay number 18) (HeLa cells): 0.2575 µM; IC50/EC50, Hela CellCycMod PI MI (assay number 17) (HeLa cells): 0.2411 µM; IC50/EC50, hJAK2 LANCE (assay number 33) (hJAK2): > 20 µM
CC(C)C[C@H](NC(=O)[C@H](CCc1ccccc1)NC(=O)CN1CCOCC1)C(=O)N[C@@H](Cc1ccccc1)C(=O)N[C@@H](CC(C)C)C(=O)[C@@]1(C)CO1 [NCGC00249613-02]	0.0152	> 20	0.2852	> 20	> 20	> 20	0.0204	0.0292	> 10	> 10	> 10	0.0099	> 20	Basal_Viability ATP RKO IC50/EC50 (RKO; assay number 29): 0.00394 µM; GSK3b inh pretreated_Viability ATP HCT116 IC50/EC50 ([1]; assay number 26, GSK3b inhibitor pretreated): 0.00173 µM; Basal_Viability ATP HT-29 IC50/EC50 (HT-29; assay number 28): 0.00318 µM; Basal_Viability ATP SNU-C1 IC50/EC50 (SNU-C1): 0.00147 µM; Basal_Viability ATP DLD-1 IC50/EC50 (DLD-1; assay number 23): 0.00696 µM; Basal_Viability ATP HCT116 IC50/EC50 (HCT116; assay number 25): 0.00558 µM
Cc1cc(O)c2ccccc2c1O [NCGC00253592-01]	1.7548	> 20	9.854	19.11	18.36	> 20	4.8933	4.3946	> 10	> 10	> 10	2.4571	> 20	Hela CellCycMod PI S Phase IC50/EC50 (HeLa cells; assay number 15, S phase): > 10 µM
COC(=O)c1nc(Cl)c(Cl)nc1N [NCGC00253704-01]														IC50/EC50, WntCondMedia_Alk Phos C2C12 (assay number 6) [2]: 0.1565 µM; IC50/EC50, hp70S6K1 LANCE (assay number 31) (hp70S6K1 (RPS6KB1)): > 20 µM; IC50/EC50, VEGF_ADSC\ECFC Angio Hoechst NucArea (assay number 3) [3]: 6.796 µM; IC50/EC50, hGSK3b LANCE (assay number 34) (hGSK3b): > 20 µM; IC50/EC50, hKDR LANCE (assay number 32) (hKDR): > 20 µM; IC50/EC50, hFLT3 LANCE (assay number 35) (hFLT3): 2.86 µM; IC50/EC50, VEGF_ADSC\ECFC Angio CD31 TubeArea (assay number 2) [4]: 0.8652 µM; IC50/EC50, WntCondMedia_bCatenin C2C12 (assay number 5) [5]: 0.3085 µM; IC50/EC50, Hela CellCycMod PI 2N (assay number 14) (HeLa cells): 0.3341 µM; IC50/EC50, Hela CellCycMod PI 4N (assay number 16) (HeLa cells): 0.5115 µM; IC50/EC50, Hela CellCycMod PI Cell Number (assay number 18) (HeLa cells): 0.4075 µM; IC50/EC50, Hela CellCycMod PI MI (assay number 17) (HeLa cells): 0.8681 µM; IC50/EC50, Hela CellCycMod PI S Phase (assay number 15) (HeLa cells; S Phase): > 10 µM; IC50/EC50, hJAK2 LANCE (assay number 33) (hJAK2): > 20 µM
Cc1ccccc1C(=O)Nc1ccc(C(=O)N2CCCC(N(C)C)c3ccccc32)cc1 (stereo not drawn) [NCGC00262931-01]	9.9815	> 20	> 10	> 20	> 20	> 20	> 10	4.5593	> 10	> 10	3.4063	2.9147	> 20	
CC[C@]1(O)C[C@H]2CN(CCc3c([nH]c4ccccc34)[C@@](C(=O)OC)(c3cc4c(cc3OC)N(C=O)[C@H]3[C@@](O)(C(=O)OC)[C@H](OC(C)=O)[C@]5(CC)C=CCN6CC[C@]43[C@@H]65)C2)C1 [NCGC00263543-01]	0.0051	> 20	> 10	> 20	> 20	> 20	0.0065	0.004	0.0062	0.0059	0.0061	0.0065	> 20	
CC[C@@H]([C@H](C)O)n1ncn(-c2ccc(N3CCN(c4ccc(OC[C@@H]5CO[C@@](Cn6cncn6)(c6ccc(F)cc6F)C5)cc4)CC3)cc2)c1=O [NCGC00274060-01]	1.6342	> 20	> 10	> 20	> 20	> 20	6.461	5.2923	> 10	> 10	> 10	> 10	> 20	

— publication PMC4503722, “Novel Phenotypic Outcomes Identified for a Public Collection of Approved Drugs from a Publicly Accessible Panel of Assays” (PLoS ONE, 2015)
